Test results: patent US5576341A, “2-[[2-(N-isobutyl-N-methyl)amino]benzylsulfinyl]-benzimidazole as antimicrobial agent” (Nippon Chemiphar Co., Ltd., priority 1993, dated 1996)
In brackets after ≈: the same amount, converted by molar mass.

What was measured:
[1] = test system: Helicobacter pylori ATCC 43526; assay: MIC by agar plate dilution method (Experimental 2), ATCC 43526; details: ATCC43526, 144 h
[2] = test system: Helicobacter pylori ATCC 43579; assay: MIC by agar plate dilution method (Experimental 2), ATCC 43579; details: ATCC43579, 144 h
[3] = test system: Helicobacter pylori ATCC 43629; assay: MIC by agar plate dilution method (Experimental 2), ATCC 43629; details: ATCC43629, 144 h
Helicobacter pylori [4] = assay: microbe, parasite or virus in culture; details: 144 h, read-out: MIC (minimal inhibitory concentration)
[5] = test system: Helicobacter pylori NCTC 11637; assay: MIC by agar plate dilution method (Experimental 2), NCTC 11637; details: NCTC11637, 144 h
[6] = test system: Helicobacter pylori Wild 1; assay: MIC by agar plate dilution method (Experimental 2), Wild 1 (first line); details: WILD1, 144 h
[7] = test system: Helicobacter pylori Wild 1; assay: MIC by agar plate dilution method (Experimental 2), Wild 1; details: WILD1, 144 h
Helicobacter pylori [8] = details: Antimicrobial Agents and Chemotherapy, March 1991, p.490-496; cited from earlier work

CN/C(=N/CCSCc1nc[nH]c1C)NC#N [Cimetidine]
MIC [1]: 800 µg/mL (≈ 3170 µM) | MIC [2]: 800 µg/mL (≈ 3170 µM) | MIC [3]: 800 µg/mL (≈ 3170 µM)

CC(C)CN(C)c1ccccc1C[S+]([O-])c1nc2ccccc2[nH]1 (stereo not drawn) [Compound (1), 2-[[2-(N-isobutyl-N-methyl)amino]benzylsulfinyl]benzimidazole]
MIC (Helicobacter pylori [4]): 12.5 µg/mL (≈ 36.6 µM) | MIC [1]: 25 µg/mL (≈ 73.2 µM) | MIC [2]: 25 µg/mL (≈ 73.2 µM) | MIC [3]: 12.5 µg/mL (≈ 36.6 µM) | MIC [5]: 25 µg/mL (≈ 73.2 µM) | MIC [6]: 50 µg/mL (≈ 146 µM) | MIC [7]: 50 µg/mL (≈ 146 µM)

NC(N)=Nc1nc(CSCCC(N)=NS(N)(=O)=O)cs1 [Famotidine]
MIC [1]: > 800 µg/mL | MIC [2]: 800 µg/mL (≈ 2370 µM) | MIC [3]: 800 µg/mL (≈ 2370 µM)

COc1ccc2[nH]c([S+]([O-])Cc3ncc(C)c(OC)c3C)nc2c1 (stereo not drawn) [Omeprazole]
antimicrobial activity against Helicobacter pylori (in words) (Helicobacter pylori [8]): have antimicrobial activity against Helicobacter pylori | MIC [1]: 12.5 µg/mL (≈ 36.2 µM) | MIC [2]: 12.5 µg/mL (≈ 36.2 µM) | MIC [3]: 12.5 µg/mL (≈ 36.2 µM) | MIC [5]: 50 µg/mL (≈ 145 µM) | MIC [6]: 50 µg/mL (≈ 145 µM) | MIC [7]: 50 µg/mL (≈ 145 µM)

Cc1c(OCC(F)(F)F)ccnc1C[S+]([O-])c1nc2ccccc2[nH]1 (stereo not drawn) [lansoprazole]
antimicrobial activity against Helicobacter pylori (in words) (Helicobacter pylori [8]): have antimicrobial activity against Helicobacter pylori
